Test results from patent publication US20180105840A1, “PROCESS FOR INDUSTRIAL PRODUCTION OF CHIRAL-1,1-DIFLUORO-2-PROPANOL” (PUBLIC UNIVERSITY CORPORATION TOYAMA PREFECTURAL UNIVERSITY, priority 2015, published 2018).

Each compound was assayed on Ogataea polymorpha strain NBRC0799-derived carbonyl reductase (assay: Reactivity of purified Ogataea polymorpha strain NBRC0799-derived carbonyl reductase to substrates (reduction reaction, NADH decrease at 340 nm)). Details: (a) Reduction reaction; substrate 50 mM, NADH 0.1 mM, 168 mM sodium phosphate buffer pH 6.0, 30° C.; enzyme activity with acetone as substrate defined as 100%.
Type: biochemical
Experimental: For enzyme activity measurement, NADH was added at a final concentration of 0.1 mM to 168 mM sodium phosphate buffer (pH 6.0) containing an enzyme or a microorganism, and 1,1-difluoroacetone was added at a final concentration of 50 mM to this reaction solution to initiate the reaction (reaction solution volume: 1 mL). The reaction was conducted at 30° C., and decreases in NADH were monitored with a spectrophotometer (V-630BIO, JASCO Corporation, Japan) as changes in absorbance at 340 nm. It should be noted that the enzyme activity was determined assuming that the amount of enzyme required to catalyze the oxidation of 1 μmol NADH per minute was defined as 1 U (unit).
To 168 mM sodium phosphate buffer (pH 6.0) containing the enzyme purified from Ogataea polymorpha strain NBRC0799, NADH was added at a final concentration of 0.1 mM, and the substrates indicated in Table B below were each added at a final concentration of 50 mM to this reaction solution to initiate the reaction (reaction solution volume: I mL). The reaction was conducted at 30° C., and decreases in NADH were measured with a spectrophotometer (V-630BIO, JASCO Corporation, Japan) as changes in absorbance at 340 nm.
Relative activity refers to the ratio of enzyme activity (conversion speed) for each substrate in comparison with the enzyme activity when using acetone as a substrate, which is defined to be 100%. When 1,1-difluoroacetone or 1,1,1-trifluoroacetone is provided as a substrate, the conversion speed per se of the enzyme is reduced (many hours are required to complete the reaction). In the case of acetone, its two methyl groups are equal, so that acetone will be captured by a recognition site in the enzyme without distinction between these two methyl groups. However, in the case of 1,1-difluoroacetone and 1,1,1-trifluoroacetone, their capture by an active site in the enzyme would require recognition between a fluoromethyl group and a methyl group, so that the speed of their capture becomes slower. On the other hand, in the case of 1,3-difluoroacetone, the fluorine atoms introduced thereinto would alter electronegativity and so on, when compared to acetone.

SMILES | Relative Activity (%)
CC(=O)C(F)(F)F [1,1,1-Trifluoroacetone] | 50
CC(=O)C(F)F [1,1-Difluoroacetone] | 58
O=C(CF)CF [1,3-Difluoroacetone] | 52
CCC(C)=O [2-Butanone] | 132
CC(=O)CC(F)(F)F [4,4,4-Trifluoro-2-butanone] | 228
CC=O [Acetaldehyde] | 330
CC(C)=O [Acetone, reference compound] | 100
CCCC=O [Butyraldehyde] | 193
CC(=O)CF [Fluoroacetone] | 211
CCC=O [Propionaldehyde] | 141

Same assay, conditions: substrate 50 mM, NADH 0.1 mM, pH 6.0, 30° C.

SMILES | conversion speed of the enzyme in comparison with acetone as a substrate
CC(=O)C(F)(F)F [1,1,1-Trifluoroacetone] | reduced
CC(=O)C(F)F [1,1-Difluoroacetone] | reduced
